The experiment concerns the target T1, Zcchc11 enzyme (Homo sapiens, UniProt Q5TAX3).
T1 construct: made in house; host or cells: HEK293 cells (Zcchc11); E. coli Rosetta II (LIN28A)
T1 sequence (Q5TAX3 212-1420): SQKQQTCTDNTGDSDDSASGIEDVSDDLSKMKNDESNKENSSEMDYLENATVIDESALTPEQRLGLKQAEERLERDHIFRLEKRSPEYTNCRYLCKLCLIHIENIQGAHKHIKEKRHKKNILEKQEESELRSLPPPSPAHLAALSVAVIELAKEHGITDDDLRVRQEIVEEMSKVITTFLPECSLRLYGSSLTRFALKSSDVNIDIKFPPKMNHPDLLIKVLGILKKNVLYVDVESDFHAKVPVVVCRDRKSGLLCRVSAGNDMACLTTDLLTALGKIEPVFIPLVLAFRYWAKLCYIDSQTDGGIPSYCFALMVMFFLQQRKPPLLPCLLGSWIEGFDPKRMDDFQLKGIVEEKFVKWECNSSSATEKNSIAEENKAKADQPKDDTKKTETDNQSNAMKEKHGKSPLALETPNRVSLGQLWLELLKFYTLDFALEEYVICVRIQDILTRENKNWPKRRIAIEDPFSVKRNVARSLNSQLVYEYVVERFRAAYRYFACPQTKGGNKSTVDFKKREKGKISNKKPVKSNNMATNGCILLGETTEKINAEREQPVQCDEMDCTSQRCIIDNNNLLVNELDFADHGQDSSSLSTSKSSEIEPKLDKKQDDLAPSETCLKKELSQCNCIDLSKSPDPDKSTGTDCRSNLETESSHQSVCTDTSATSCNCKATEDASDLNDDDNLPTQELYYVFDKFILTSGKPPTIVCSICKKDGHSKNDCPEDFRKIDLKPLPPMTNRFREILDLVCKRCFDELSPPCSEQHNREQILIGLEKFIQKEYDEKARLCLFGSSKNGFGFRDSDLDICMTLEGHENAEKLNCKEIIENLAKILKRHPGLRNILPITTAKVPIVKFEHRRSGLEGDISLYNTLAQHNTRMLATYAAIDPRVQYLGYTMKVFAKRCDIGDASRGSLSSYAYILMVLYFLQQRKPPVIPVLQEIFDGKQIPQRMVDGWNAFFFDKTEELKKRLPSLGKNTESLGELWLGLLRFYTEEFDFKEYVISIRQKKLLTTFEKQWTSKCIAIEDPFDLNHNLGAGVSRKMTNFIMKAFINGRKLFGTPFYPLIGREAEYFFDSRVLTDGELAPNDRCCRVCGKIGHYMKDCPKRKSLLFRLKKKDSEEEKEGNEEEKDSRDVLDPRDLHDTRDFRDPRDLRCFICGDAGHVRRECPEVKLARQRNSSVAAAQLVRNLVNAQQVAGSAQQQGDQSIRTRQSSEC
In words: TUTase assay (Zcchc11 assay, Lin28a-dependent polyuridylation of pre-let-7). The class given is biochemical. Particulars: Lin28a-dependent Zcchc11 (Z11) TUTase activity; read-out: Potency Lin28a-dep Z11 IC50. The method, then:
The purpose of the Zcchc11 assay is to determine compound potency against Zcchc11 enzyme through the measurement of IC50. Compound inhibition is measured as a function of polyuridine tails added to RNA substrates in the presence of active TUTase, UTP, and inhibitor. The Zcchc11 assay was done in a black, non-binding, 384 well plate (Corning #3575). All steps were performed at room temperature. For a typical assay, a 29 ul aliquot of assay buffer (50 mM HEPES pH 7.3, 150 mM KCl, 5 mM MgCl2, 10 mM DTT, 0.01% Triton X-100, 40 U/ml RNAsin (Promega)) containing LIN28A protein (final concentration: 10 nM) is added to each well. Next, 1 ul of compound in 100% DMSO is transferred from a compound dilution plate in which the compound is serially diluted. Next, 10 ul of a 5× mix of Zcchc11 and RNA substrate (5′-fluorescein labeled pre-let-7 miRNA (Dharmacon)) is added (final concentrations: 0.2 nM and 2 nM, respectively). The plate is placed on a plate shaker for 30 seconds to produce mixing, then incubated for 30 minutes. Next, 10 ul of a 5× mix of UTP and the quenching probe (3′-rhodamine labeled A20, polyadenosine nucleotide, (IDT)) is added (final concentrations: 5 uM and 4 nM, respectively). The plate is immediately placed in a Biotek Cytation 5 plate reader, and the time-dependent decrease in fluorescein fluorescence resulting from annealing of the A20 probe to polyuridine tails is recorded, using the kinetics mode of the reader. Reaction rates are obtained using linear fits to the early portion of progress curves. IC50 values are calculated using a four parameter fit with 100% enzyme activity determined from the DMSO control and 0% activity from control samples lacking UTP.
The LIN28A protein was expressed in and purified from E. coli, strain Rosetta II (Novagen). The entire coding sequence of the human, wild-type protein was cloned into expression vector pMAL (NEB), down-stream from a maltose-binding protein tag. The linker sequence contained a TEV protease cleavage site. The protein was purified from bacterial extracts using an MBP-Trap column (GE Healthcare Life Sciences), followed by tag cleavage and removal of the tag by ion-exchange chromatography. When necessary, contaminating bacterial RNA was removed using the procedure describe by Faehnle C R. et al. (2017) Multi-domain utilization by TUT4 and TUT7 in control of let-7 biogenesis. Nat Struct Mol Biol, 24:658-665.
The Zcchc11 protein was expressed in and purified from HEK293 cells. A truncated protein comprising residues 212-1420 of the human sequence was cloned into expression vector pTT5 (Viva Biotech) down-stream from a maltose-binding protein tag. The linker sequence contained a TEV protease cleavage site, and a FLAG tag was added to the carboxyl terminus of the protein. The protein was purified from cell extracts using an MBP-Trap column (GE Healthcare Life Sciences), followed by tag cleavage and further enrichment of the full length construct using anti-FLAG affinity media (Sigma Aldrich).
“+” represents an IC50 value that is greater than 50 μM; “++” represents an IC50 value that is greater than 10 μM and equal to or less than 50 μM; “+++” represents an IC50 value that is greater than 1 μM and equal to or less than 10 μM; and “++++” represents an IC50 value that is equal to or less than 1 μM.

Counter-ions that a name gives are not always drawn.

Turning to `O=C(O)c1cn(-c2cnn(C3CNC3)c2)c2nc(N3CCC[C@@H]3COc3ncccc3F)c(Cl)cc2c1=O` (racemic) [Compound 192, rac-(R)-1-(1-(azetidin-3-yl)-1H-pyrazol-4-yl)-6-chloro-7-(2-(((3-fluoropyridin-2-yl)oxy)methyl)pyrrolidin-1-yl)-4-oxo-1,4-dihydro-1,8-naphthyridine-3-carboxylic acid hydrochloride], the IC50 (as a rule, the midpoint of a concentration-inhibition curve) is ≤ 1000 nM.

Turning to `O=C(O)c1cn(-c2cnccn2)c2nc(N3CCC[C@@H]3COc3nnccc3Cl)c(Cl)cc2c1=O` (racemic) [Compound 193, rac-(R)-6-chloro-7-(2-(((4-chloro-pyridazin-3-yl)oxy)methyl)pyrrolidin-1-yl)-4-oxo-1-(pyrazin-2-yl)-1,4-dihydro-1,8-naphthyridine-3-carboxylic acid], the IC50 lay within 1000 to 10000 nM.

For the compound `N#Cc1cc2c(=O)c(C(=O)O)cn(-c3cnc(N4CCC4)cn3)c2nc1N1CCC[C@@H]1COc1ncccc1F` (racemic) [Compound 194, rac-(R)-1-(5-(azetidin-1-yl)pyrazin-2-yl)-6-cyano-7-(2-(((3-fluoropyridin-2-yl)oxy)methyl)pyrrolidin-1-yl)-4-oxo-1,4-dihydro-1,8-naphthyridine-3-carboxylic acid], the IC50 was ≤ 1000 nM.

Consider `CN(C)C(=O)OC[C@H]1CCCN1c1cc2c(cc1Cl)c(=O)c(C(=O)O)cn2-c1ccc(N2CC(N(C)C)C2)nc1` (racemic) [Compound 195, rac-(R)-6-chloro-1-(6-(3-(dimethyl-amino)azetidin-1-yl)pyridin-3-yl)-7-(2-(((dimethylcarbamoyl)oxy)methyl)pyrrolidin-1-yl)-4-oxo-1,4-dihydro-quinoline-3-carboxylic acid formic acid], for which the IC50 was ≤ 1000 nM.

In the case of `COc1ccc(Cl)c(OC[C@H]2CC(C3CCC3)CN2c2cc3c(cc2Cl)c(=O)c(C(=O)O)cn3-c2ccc(N3CC(N(C)C)C3)nc2)n1` (mixture of isomers) [Compound 203, rac-6-chloro-7-((2R)-2-(((3-chloro-6-methoxy-pyridin-2-yl)oxy)methyl)-4-cyclobutyl-pyrrolidin-1-yl)-1-(6-(3-(dimethyl-amino)azetidin-1-yl)pyridin-3-yl)-4-oxo-1,4-dihydro-quinoline-3-carboxylic acid], the IC50 is ≤ 1000 nM.

Turning to `CN(C)C1CN(c2ccc(-n3cc(C(=O)O)c(=O)c4cc(Cl)c(N5CC(C6CCC6)C[C@@H]5COc5ncccc5Cl)cc43)cn2)C1` (mixture of isomers) [Compound 205, rac-6-chloro-7-((2R)-2-((3-chloropyridin-2-yl)oxy)methyl)-4-cyclobutyl-pyrrolidin-1-yl)-1-(6-(3-(dimethyl-amino)azetidin-1-yl)pyridin-3-yl)-4-oxo-1,4-dihydro-quinoline-3-carboxylic acido-quinoline-3-carboxylic acid], the IC50 was ≤ 1000 nM.

As to `CC(C)C1C[C@H](COc2ncccc2Cl)N(c2cc3c(cc2Cl)c(=O)c(C(=O)O)cn3-c2ccc(N3CC(N(C)C)C3)nc2)C1` (mixture of isomers) [Compound 223, Rac-6-chloro-7-((2R)-2-(((3-chloropyridin-2-yl)oxy)methyl)-4-isopropyl-pyrrolidin-1-yl)-1-(6-(3-(dimethyl-amino)azetidin-1-yl)pyridin-3-yl)-4-oxo-1,4-dihydro-quinoline-3-carboxylic acid], the IC50 is ≤ 1000 nM.

On to `COc1ccc(Cl)c(OC[C@H]2CC(c3ccc(O)nc3)CN2c2cc3c(cc2F)c(=O)c(C(=O)O)cn3-c2ccc(N3CC(N(C)C)C3)nc2)n1` (mixture of isomers) [Compound 224, Formic acid compound with rac-7-((2R)-2-(((3-chloro-6-methoxy-pyridin-2-yl)oxy)methyl)-4-(6-hydroxy-pyridin-3-yl)pyrrolidin-1-yl)-1-(6-(3-(dimethyl-amino)azetidin-1-yl)pyridin-3-yl)-6-fluoro-4-oxo-1,4-dihydro-quinoline-3-carboxylic acid (1:1)], for which the IC50 is ≤ 1000 nM.

As for `COc1ccc(Cl)c(OC[C@H]2CC(c3ccc(O)nc3)CN2c2cc3c(cc2Cl)c(=O)c(C(=O)O)cn3-c2ccc(N3CC(N(C)C)C3)nc2)n1` (mixture of isomers) [Compound 225, Rac-6-chloro-7-((2R)-2-(((3-chloro-6-methoxy-pyridin-2-yl)oxy)methyl)-4-(6-hydroxy-pyridin-3-yl)pyrrolidin-1-yl)-1-(6-(3-(dimethyl-amino)azetidin-1-yl)pyridin-3-yl)-4-oxo-1,4-dihydro-quinoline-3-carboxylic acid], the IC50 is ≤ 1000 nM.

Turning to `COc1ccc(Cl)c(OC[C@H]2CC(C(C)C)CN2c2cc3c(cc2Cl)c(=O)c(C(=O)O)cn3-c2ccc(N3CC(N(C)C)C3)nc2)n1` (mixture of isomers) [Compound 227, Rac-6-chloro-7-((2R)-2-(((3-chloro-6-(11-oxidaneyl)pyridin-2-yl)oxy)methyl)-4-isopropyl-pyrrolidin-1-yl)-1-(6-(3-(dimethyl-amino)azetidin-1-yl)pyridin-3-yl)-4-oxo-1,4-dihydro-quinoline-3-carboxylic acid], the IC50 was ≤ 1000 nM.

For `COc1ccc(Cl)c(OC[C@H]2C[C@@H]3C[C@@H]3N2c2cc3c(cc2F)c(=O)c(C(=O)O)cn3-c2ccnc(N)c2)n1` (racemic) [Compound 230, Rac-1-(2-aminopyridin-4-yl)-7-((1R,3S,5R)-3-(((3-chloro-6-methoxy-pyridin-2-yl)oxy)methyl)-2-azabicyclo [3.1.0]hexan-2-yl)-6-fluoro-4-oxo-1,4-dihydro-quinoline-3-carboxylic acid], the IC50 was ≤ 1000 nM.

With `COc1ccc(Cl)c(OC[C@H]2C[C@@H]3C[C@@H]3N2c2cc3c(cc2Cl)c(=O)c(C(=O)O)cn3-c2ccnc(N)c2)n1` (racemic) [Compound 231, Rac-1-(2-aminopyridin-4-yl)-6-chloro-7-((1R,3S,5R)-3-(((3-chloro-6-methoxy-pyridin-2-yl)oxy)methyl)-2-azabicyclo [3.1.0]hexan-2-yl)-4-oxo-1,4-dihydro-quinoline-3-carboxylic acid], the IC50 is ≤ 1000 nM.

Values taken from patent US12662491B2 (Redona Therapeutics, Inc., priority 2020, dated 2026).
